This note sets out measurements from patent US10351915B2 (Berg LLC, priority 2009, dated 2019).

The subject of data set [1] is Isocitrate Dehydrogenase-1 (IDH-1). The data set is described as follows: Western blot, IDH1 levels. It counts as cell-based, human. On the procedure: The whole cell pellets were resuspended one at a time in 1 mL of C7 buffer and transferred to labeled 15 mL tubes. The samples were then sonicated in the cold room on ice using 6 sonic pulses with the setting at #14. The samples were spun for a short time to 2500 g after sonication and the samples transferred to 2 ml tubes. The pH was verified of each sample (pH should be 9.0) using the foam remaining in the […] sample tubes.
Alkylation and reduction of samples was performed for each sample by adding 10 ul of 1M acrylamide, 25 ul of tributylphoshene and incubation for 90 mins with intermittent mixing. After incubation, 10 ul of 1M DTT was added and the tubes were spun at 20,000 g at 20 deg C. for 10 minutes and transferred the supernatant to labeled Amicon Ultra centrifugal filter units with a 10 k cut off (Millipore catalog # UFC 801024). The samples were spun for 15 minutes at 2500 g in 2 intervals. The conductivity was measured for Chaps alone as well as the samples using a conductivity meter. If the conductivity of samples is high, then 1 ml of chaps was added for buffer exchange and spun again at 2500 g until the volume was down to 250 ul. When the conductivity was 200 or less the samples were spun in 5 min intervals at 2500 g until the volume of the supernatant was between 150-100 ul. The sample supernatants were transferred to eppendorf tubes and Bradford assay was performed using BSA as standard.
The samples were processed as per standard protocols as described above and the amount of protein in each of the samples was determined by Bradford assay. Sample volumes equivalent to 10 ug of protein were prepared as shown below with Lamelli Loading dye (LDS) and MilliQ water were run on a 4-12% Bis-Tris Novex NuPAGE gel (Invitrogen, cat # NP0323Box)
The gels were run for 50 minutes using 1×MOPS buffer using a NOVEX Xcell Surelock system at 200 V. The gels were then transferred for 1 hour using a NOVEX Xcell Surelock wet transfer protocol at 30 V. The blots were stained with Simply Blue Safestain from Invitrogen (LC6065).
After transfer each of the blots was placed in between 2 Whatman Filter papers and dried for 15-20 minutes. After drying the blots were labeled with the date, the type of samples and either blot 1 or blot 2 using a HB pencil. The molecular weight markers were outlined with the pencil and with single lines for the blue and a doublet for the colored markers. The blots were activated with methanol for 5 seconds, washed with water for 5 minutes, and TBST for 15 minutes. The blots were blocked for 1 hour with 5% blocking reagent in TBS-T at room temperature and then washed 3 times with TBS-T (1×-15′; 2×5′ each). […]

Data set [2] can be described thus: LC-MS/MS quantification of Q10, Q10H2 and Q9 in mitochondrial enriched samples. It counts as cell-based. On the procedure: Ten μl of each sample was injected.

Consider `COC1=C(OC)C(=O)C(C/C=C(\C)CC/C=C(\C)CC/C=C(\C)CC/C=C(\C)CC/C=C(\C)CC/C=C(\C)CC/C=C(\C)CC/C=C(\C)CC/C=C(\C)CCC=C(C)C)=C(C)C1=O` [Q10, Coenzyme Q10], for which the “IDH1, Average Normalized Intensity” value in data set [1] (HDFa cells, HDF24-100 (HDF, Media = 346)) was 600. For the same compound, the “expression pattern of IDH1” value in data set [1] (HDFa, nFIB and HASMC) is on record as “did not demonstrate significant changes”. For the same compound, the “expression of IDH1” value in data set [1] (SCC25 cell lines) is reported as “moderate increase in expression”; in data set [1] (cancer cell lines MCF-7, SKMEL28, HepG2 and PaCa-2), “increased expression”. Besides, the “increase in Q10 levels in mitochondria” value is given as roughly 3 fold in data set [2] (100 μM Q10, 19 hours) and roughly 6 fold in data set [2] (100 μM Q10, 48 hour time point). In addition, in data set [2] (exogenous Q10 added to the media), the “form of Q10 in mitochondria” value is listed as “maintained in the supplied oxidized form”.
